One data set concerns Rattus norvegicus. Kind of data set: Induction of PTH release in iv dosed Wistar rat by radioimmunoassay. The data set is classed as functional, organism-based.
The target of data set [1] is T1, Extracellular calcium-sensing receptor (Homo sapiens, UniProt P41180).
T1 sequence (P41180 whole entry): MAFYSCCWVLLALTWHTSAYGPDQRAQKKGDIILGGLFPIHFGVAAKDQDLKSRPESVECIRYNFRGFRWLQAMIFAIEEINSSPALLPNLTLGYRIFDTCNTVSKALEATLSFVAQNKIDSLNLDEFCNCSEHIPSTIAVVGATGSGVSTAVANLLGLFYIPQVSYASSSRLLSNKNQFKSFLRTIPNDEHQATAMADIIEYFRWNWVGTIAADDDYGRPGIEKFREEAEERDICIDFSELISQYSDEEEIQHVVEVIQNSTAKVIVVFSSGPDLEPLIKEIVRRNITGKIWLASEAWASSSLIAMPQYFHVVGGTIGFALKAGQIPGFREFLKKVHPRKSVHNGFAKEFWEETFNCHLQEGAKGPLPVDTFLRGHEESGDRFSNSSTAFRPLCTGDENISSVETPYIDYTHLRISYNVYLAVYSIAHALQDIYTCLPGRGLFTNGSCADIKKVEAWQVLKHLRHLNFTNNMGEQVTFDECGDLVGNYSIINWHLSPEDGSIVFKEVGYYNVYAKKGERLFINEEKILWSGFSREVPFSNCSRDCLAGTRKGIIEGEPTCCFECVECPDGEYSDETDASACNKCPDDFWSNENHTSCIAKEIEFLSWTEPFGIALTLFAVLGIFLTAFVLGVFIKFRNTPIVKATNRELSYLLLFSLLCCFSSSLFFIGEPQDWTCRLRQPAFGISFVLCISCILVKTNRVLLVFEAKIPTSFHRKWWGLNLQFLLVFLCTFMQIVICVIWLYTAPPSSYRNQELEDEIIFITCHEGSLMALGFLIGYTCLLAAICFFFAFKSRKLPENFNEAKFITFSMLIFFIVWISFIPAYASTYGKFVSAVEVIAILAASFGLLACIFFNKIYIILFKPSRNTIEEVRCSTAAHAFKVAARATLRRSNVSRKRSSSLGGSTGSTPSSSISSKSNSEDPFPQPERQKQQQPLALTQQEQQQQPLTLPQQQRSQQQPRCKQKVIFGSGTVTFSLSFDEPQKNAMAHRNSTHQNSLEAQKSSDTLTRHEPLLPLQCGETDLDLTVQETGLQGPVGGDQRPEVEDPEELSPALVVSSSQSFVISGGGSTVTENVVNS
Kind of data set: Antagonist activity at human CaSR expressed in CCL39 cells assessed as inhibition of extracellular calcium-induced intracellular calcium transient by FLIPR assay. It is filed as functional, cell-based.

Data set [2] is described as follows: Aqueous solubility at pH 1.0. The data set is classed as physicochemical.
A short description of data set [3]: Oral bioavailability in rat. It is filed as ADME, organism-based. As to conditions: in vivo.
Data set [4] in a line: Aqueous solubility at pH 6.8. It is filed as physicochemical.

Molecules are shown by their SMILES. Values after ≈ are worked out from the molar mass of the structure shown. Active and inactive are the calls of the source. The calls are words filed in the database; no cut-off is given here.

For `C#CCOc1ccc2c(c1)c(-c1ccc(C(C)C)cc1)nc(=O)n2Cc1ccc(OC)c(OCC)c1` [ATF-936], the result in the data set on Rattus norvegicus was Active. In data set [1], the IC50 (in general, the concentration that gives 50% inhibition) turned out to be 1.4 nM.
As to `C#CCOc1ccc2c(c1)c(-c1ccc(C(C)C)cc1)nc(=O)n2Cc1cccc(OC)c1`, the result in the data set on Rattus norvegicus was Active. Also, in data set [1], the IC50 stood at 2.7 nM.
In the same order, the values of `C#CCOc1ccc2c(c1)c(-c1ccc(C(C)C)cc1)nc(=O)n2Cc1ccc(OCC(=O)O)cc1` are “Active” and 12.6 nM.
As to `CC(C)c1ccc(-c2nc(=O)n(C(C)C)c3ccc(O)cc23)cc1`, the outcome in the data set with Rattus norvegicus was Active. Besides, the IC50 in data set [1] was 15900 nM.
In the same order, the values of `CCCCOc1ccc2c(c1)c(-c1ccc(C(C)C)cc1)nc(=O)n2C(C)C` are “Active” and 3700 nM.
On the same counts, the results for `C#CCOc1ccc2c(c1)c(-c1ccc(C(C)C)cc1)nc(=S)n2Cc1cccc(OCCO)c1` are “Active” and 0.4 nM.
For the compound `C#CCOc1ccc2c(c1)c(-c1ccc(C(C)C)cc1)nc(=O)n2Cc1cccc(NC(=O)CN2CCN(CCOC)CC2)c1`, the result with Rattus norvegicus was Active. The solubility – broadly, the concentration that dissolves in the medium under given conditions – was > 200 µg/mL in data set [2] and 20 µg/mL (≈ 32.9 µM) in data set [4]. Moreover, the bioavailability (in general, the share of a dose that reaches the circulation, judged against a reference dose that is usually intravenous) in data set [3] was 1%. Moreover, the IC50 in data set [1] was found to be 13 nM.
Turning to `C#CCN(CC#C)c1ccc2c(c1)c(-c1ccc(C(C)C)cc1)nc(=O)n2C(C)C`, in the data set on Rattus norvegicus, the result was Active. Further, the IC50 in data set [1] stood at 120 nM.
In the same order, the values of `C#CCOc1ccc2c(c1)c(-c1ccc(C(C)C)cc1)nc(=O)n2Cc1cccc(OCC(=O)O)c1` are “Active” and 3.4 nM.
For `C#CCOc1ccc2c(c1)c(-c1ccc(C(C)C)cc1)nc(=O)n2Cc1cccc(OCCO)c1`, the result in the data set on Rattus norvegicus was Active. Moreover, in data set [1], the IC50 stood at 7.3 nM.
As for `C#CCOc1ccc2c(c1)c(-c1ccc(C(C)C)cc1)nc(=O)n2Cc1ccc(CC)cc1`, the outcome in the data set on Rattus norvegicus was Active. Moreover, the concentration for half-maximal inhibition (IC50) in data set [1] was 4.2 nM.
With `CC(C)c1ccc(-c2nc(=O)n(Cc3ccccc3)c3ccc(O)c(CC4CC4)c23)cc1`, the outcome in the data set on Rattus norvegicus was Active. Also, in data set [1], the half-maximal inhibitory concentration (IC50) was 2.5 nM.
Regarding `C#CCOc1ccc2c(c1)c(-c1ccc(C(C)C)cc1)nc(=O)n2Cc1ccc(OCC)cc1`, the outcome in the data set on Rattus norvegicus was Active. Besides, the IC50 in data set [1] was 19 nM.
In the same order, the values of `C#CCNc1ccc2c(c1)c(-c1ccc(C(C)C)cc1)nc(=O)n2C(C)C` are “Active” and 30 nM.
As for `COc1ccc2c(c1)c(-c1ccc(C3CC3)cc1)nc(=O)n2C(C)C`, in the data set on Rattus norvegicus, the outcome was Active. Besides, the IC50 in data set [1] turned out to be 3300 nM.
For `CCOc1ccc2c(c1)c(-c1ccc(C(C)C)cc1)nc(=O)n2C(C)C`, the result in the data set with Rattus norvegicus was Active. In data set [1], the IC50 was 2200 nM.
As for `C#CCOc1ccc2c(c1)c(-c1ccc(C(C)C)cc1)nc(=O)n2Cc1cccc(CC)c1`, the result in the data set with Rattus norvegicus was Active. Moreover, in data set [1], the IC50 is 13 nM.
In the same order, the values of `CC(C)c1ccc(-c2nc(=O)n(C(C)C)c3ccc(NCc4ccccc4)cc23)cc1` are “Active” and 10000 nM.
On the same counts, the results for `CCCNc1ccc2c(c1)c(-c1ccc(C(C)C)cc1)nc(=O)n2C(C)C` are “Active” and 1100 nM.
Take `COc1ccc2c(c1)c(-c1ccc(C(=O)O)cc1)nc(=O)n2C(C)C`: the result in the data set with Rattus norvegicus was Active. The half-maximal inhibitory concentration (IC50) in data set [1] was > 30000 nM.
As to `C#CCOc1ccc2c(c1)c(-c1ccc(C(C)C)cc1)nc(=O)n2Cc1ccc(C)cc1`, in the data set with Rattus norvegicus, the result was Active. The IC50 in data set [1] worked out at 1.6 nM.
Regarding `CCCN(CCC)c1ccc2c(c1)c(-c1ccc(C(C)C)cc1)nc(=O)n2C(C)C`, the outcome in the data set with Rattus norvegicus was Active. Also, the IC50 in data set [1] amounted to 2900 nM.
For `CCNc1ccc2c(c1)c(-c1ccc(C(C)C)cc1)nc(=O)n2C(C)C`, in the data set with Rattus norvegicus, the outcome was Active. Further, the IC50 in data set [1] stood at 460 nM.
On to `CCc1ccc(-c2nc(=O)n(C(C)C)c3ccc(OC)cc23)cc1`, for which the outcome with Rattus norvegicus was Active. In addition, the concentration for half-maximal inhibition (IC50) in data set [1] turned out to be 2100 nM.
With `COc1ccc2c(c1)c(-c1ccc(-c3ccccc3)cc1)nc(=O)n2C(C)C`, the outcome in the data set with Rattus norvegicus was Active. Also, the IC50 in data set [1] is 5500 nM.
For `COc1ccc2c(c1)c(-c1ccccc1)nc(=O)n2C(C)C`, the outcome in the data set with Rattus norvegicus was Active. Besides, the IC50 in data set [1] is > 30000 nM.
Consider `CC(C)Oc1ccc2c(c1)c(-c1ccc(C(C)C)cc1)nc(=O)n2C(C)C`, for which the result in the data set with Rattus norvegicus was Active. Moreover, the IC50 in data set [1] was 2700 nM.
Regarding `CCCOc1ccc2c(c1)c(-c1ccc(C(C)C)cc1)nc(=O)n2C(C)C`, in the data set on Rattus norvegicus, the result was Active. For the same compound, the IC50 in data set [1] was 1100 nM.
Turning to `C#CCOc1ccc2c(c1)c(-c1ccc(C(C)C)cc1)nc(=O)n2Cc1ccc(C(C)C)cc1`, the outcome in the data set on Rattus norvegicus was Active. Besides, the IC50 in data set [1] was 27 nM.
Turning to `C#CCOc1ccc2c(c1)c(-c1ccc(C(C)C)cc1)nc(=O)n2Cc1ccc(OC)cc1`, the outcome with Rattus norvegicus was Active. Further, in data set [1], the IC50 turned out to be 4.2 nM.
As to `C#CCOc1ccc2c(c1)c(-c1ccc(C(C)C)cc1)nc(=O)n2Cc1ccccc1`, in the data set with Rattus norvegicus, the result was Active. The IC50 in data set [1] is 4.4 nM.
As for `COc1ccc2c(c1)c(-c1ccc(C)cc1)nc(=O)n2C(C)C`, in the data set with Rattus norvegicus, the result was Active. The IC50 in data set [1] is > 30000 nM.
On to `COc1ccc2c(c1)c(-c1ccc(C(C)(C)C)cc1)nc(=O)n2C(C)C`, for which the result in the data set with Rattus norvegicus was Active. Moreover, in data set [1], the IC50 was 2100 nM.
For the compound `COC(=O)c1ccc(-c2nc(=O)n(C(C)C)c3ccc(OC)cc23)cc1`, the result in the data set with Rattus norvegicus was Active. In data set [1], the IC50 is > 30000 nM.
On the same counts, the results for `CCCc1c(O)ccc2c1c(-c1ccc(C(C)C)cc1)nc(=O)n2Cc1ccccc1` are “Active” and 6.6 nM.
As for `COc1ccc2c(c1)c(-c1ccc(OC(C)C)cc1)nc(=O)n2C(C)C`, the outcome in the data set on Rattus norvegicus was Active. The IC50 in data set [1] is > 30000 nM.
On to `C=CCN(C)c1ccc2c(c1)c(-c1ccc(C(C)C)cc1)nc(=O)n2C(C)C`, for which the outcome with Rattus norvegicus was Active. The IC50 in data set [1] amounted to 230 nM.
On the same counts, the results for `COc1ccc2c(c1)c(-c1ccc(C(C)C)cc1)nc(=O)n2C(C)C` are “Active” and 1400 nM.
In the same order, the values of `CC#CCOc1ccc2c(c1)c(-c1ccc(C(C)C)cc1)nc(=O)n2C(C)C` are “Active” and 170 nM.
Regarding `C=CCOc1ccc2c(c1)c(-c1ccc(C(C)C)cc1)nc(=O)n2C(C)C`, the outcome in the data set with Rattus norvegicus was Active. Further, in data set [1], the 50% inhibitory concentration (IC50) was 180 nM.
With `CCN(CC)c1ccc2c(c1)c(-c1ccc(C(C)C)cc1)nc(=O)n2C(C)C`, the outcome in the data set with Rattus norvegicus was Active. Further, the IC50 in data set [1] is 520 nM.
For `C=CCc1c(O)ccc2c1c(-c1ccc(C(C)C)cc1)nc(=O)n2Cc1ccccc1`, in the data set with Rattus norvegicus, the result was Active. For the same compound, in data set [1], the IC50 came out at 3.9 nM.
In the case of `C#CCOc1ccc2c(c1)c(-c1ccc(C(C)C)cc1)nc(=O)n2Cc1cccc(C)c1`, in the data set on Rattus norvegicus, the outcome was Active. Also, the IC50 in data set [1] was found to be 1.8 nM.
For `C=CCNc1ccc2c(c1)c(-c1ccc(C(C)C)cc1)nc(=O)n2C(C)C`, the result in the data set with Rattus norvegicus was Active. In addition, in data set [1], the IC50 turned out to be 70 nM.

These data come from ChEMBL document CHEMBL1157601, “1-Alkyl-4-phenyl-6-alkoxy-1H-quinazolin-2-ones: a novel series of potent calcium-sensing receptor antagonists” (J Med Chem, 2010).
